From patent EP1304101A1, “Composition and method for use of pyridinium derivatives in cosmetic and therapeutic applications” (Torrent Pharmaceuticals Ltd, priority 2001, dated 2003)

What was measured:
Rat Tail Tendon Collagen = test: In-vivo AGE breaking: collagen solubility in rat tail tendon of STZ-diabetic rats after 8 weeks of treatment; parameters: species or system male wister rats; details: 8 weeks treatment
From the text: The results are mentioned in Table 3 below:
A brief summary of observation is as follows.

AGE-BSA = molecular target: T1, AGE-BSA (Bos taurus, UniProt P02769); test: In-vitro AGE breaking activity by ELISA (16 weeks AGE-BSA incubated with test compound); assay type: biochemical, bovine; details: for % Breakage: 37°C, 24 hours; for AGE breaking activity compared to PTB / potency (AGE breaking activity compared to PTB): comparison in words based on Table 2
T1 construct: Bovine serum albumin (fraction V) (BSA); from tissue
Protocol: AGE breaking activity has been confirmed by the screening procedure as mentioned below: • Materials: • Bovine serum albumin (fraction V) (BSA) • Glucose, analytical grade • Phosphate buffered saline (PBS) • Equipment: • Microplate ELISA Reader - Spectramax Plus (Molecular Devices, USA) • Microplate washer, (Bio -Tec Instruments, USA) • pH meter • Methods of experiment: Elisa (Enzyme Linked Immunosorbent Assay) 160 mg/ml of protein, bovine serum albumin, BSA and 1.6M glucose sugar were dissolved in phosphate buffered saline, PBS. Sodium azide was added at 0.02% concentration as a preservative. The solution was filtered asceptically through a 0.22 µM filter and kept for aging at 37°C for 16 weeks. After 16 weeks the solution was dialyzed against PBS, aliquoted and stored at - 20°C.
To determine the AGE breaking activity, 10 µg/ml of the 16 weeks AGE-BSA was incubated with different concentrations of the test compounds at 37°C for 24 hours and AGE breaking activity of the test compounds by ELISA was determined.
Different concentrations of 16 weeks AGE-BSA were coated on a microtitre plate as standard. Each concentration is coated in triplicates. • 2. The test samples were coated on microtitre plate at a concentration of 5 ng. to 20 ng per well in triplicates. • 3. The plate was incubated at 37°C for one hour. • 4. After incubation the plate was washed with PBST (PBS with 0.05% Tween 20). • 5. Blocking with 5% skimmed milk in PBS at 37°C for one hour was done. • 6. The plate was washed with PBST. • 7. Primary antibody against AGE-BSA was added and the plate is incubated at 37°C for one hour. • 8. The plate was washed with PBST • 9. Secondary antibody anti rabbit HRPO (Horse-Radish Per Oxidase) conjugate was added and the plate is incubated at 37°C for one hour. • 10. The plate was washed with PBST. • 11. Colour development with OPD (orthophenylenediamine dihydrochloride) and hydrogen peroxide was done. • 12. OD (optical density) at (450nm reading - 620nm reading) was measured after incubation at 37°C for 15 minutes with Microplate ELISA Reader.
The breaker activity of the compounds were determined by the following formula: % Breaker activity =(OD450-620 Control - OD450-620 Test)/(OD450-620 Control)x 100 [formula] OD450-620Control= Absorbance of 20ng AGE-BSA after incubation at 37°C for 24 hours without test compound OD450-620Test= Absorbance of 20ng AGE-BSA after incubation at 37°C for 24 hours with required concentration of test compound

Maillard reaction = test: AGE inhibiting activity, Method I (BSA + ribose, fluorescence); assay type: biochemical; details: 37° C for 7 days
Protocol: The following method was used to determine the inhibitory effect of the test compound on Maillard reaction in-vitro.
Addition of compound was done in aseptic conditions. Sodium azide (0.02%) was also added in this solution in order to prevent microbial growth. A separate tube containing BSA, ribose and sodium azide in the same concentration and buffer as above, but without any test compound, was also incubated as positive control.
After incubation at 37° C for 7 days, 40 micro litre sample from each tube was removed and diluted with PBS to have final concentration of BSA at 1mg/ml. The fluorescence of all the samples was measured at Excitation Maximum of 355nM and the Emission Maximum of 460nM using f-MAX Fluorimeter (Molecular Device, USA). In order to study the effect of test compound on fluorescence, freshly prepared compound solution was mixed with previously incubated positive control (i.e. BSA + ribose), so as to achieve same concentration of all the components as that of test samples.
The percent inhibition of test compound was measured as follows: % Inhibition =(F4 - F3)/(F4)X 100 [formula] Where F3 = Fluorescence of BSA + ribose + compound,F4 is fluorescence of incubated (BSA + ribose) + freshly added test compound.

[1] = Free radical scavenging activity on ABTS radical cation (absorbance at 730nm); assay type: biochemical
Protocol: This method measures the relative ability of free radical scavenging substances to scavenge the ABTS ^.+ i.e. 2,2-Azino-bis-(3-ethyl benzo thiazoline-6-sulfonate) radical cation as compared to a standard amount of standard or free radical scavengers antioxidants. Incubation of ABTS with Peroxidase (metmyoglobin) and hydrogen peroxide results in the production of radical cation ABTS^.+ . This species is blue- green in colour and can be detected at 730nm. Antioxidants or free radical scavengers in the added sample that causes suppression of the color to a degree that is proportional to their concentration.
• A. Phosphate Citrate Buffer (pH 5.0): 48.5ml of 0.1M citric acid with sufficient 0.2M disodium hydrogen phosphate to produce 100 ml. • B. Phosphate Buffer Saline (PBS): Dissolve 40.0g of NaCl, 1.0g of KCI, 1.0g of KH2PO4 and 3.05g of Na2HPO4 in 1 litre milli-Q water. Dilute 200ml of above solution to 1 litre with milli-Q water (pH 7.4-7.6). • C. 3µM stock solution of Peroxidase was prepared in phosphate buffer saline pH 7.4(PBS). • D. 1.08 mM stock solution of Hydrogen peroxide was prepared in phosphate buffer saline pH 7.4 (PBS).
1 tablet (10mg) was dissolved in phosphate citrate buffer (pH 5.0).
5.0ml of ABTS stock solution was diluted with PBS to 20 ml.
320 µg of the enzyme was dissolved in 2.5 ml of PBS.
12µl of Hydrogen Peroxide (30%w/v) was diluted to 100ml with PBS.
0.1mM of stock solution of the drug was prepared which was serially diluted in PBS to get solutions of different concentrations.
To 18ml of ABTS stock solution, 100µl of Horseradish Peroxidase stock solution was added.
As soon as 1.5 ml of hydrogen peroxide solution was added to the above solution, blue-green colour of the ABTS radicals appeared. This solution was incubated at 30°C for 30 min.
980µl of ABTS radical stock solution was added to an eppendorf tube. To it was added 100µl of various PBS solution.
980µl of ABTS radical stock solutions were added to different eppendorf tubes. To it were added 100µl of various concentrations of drug solution.
The absorbance of control and test samples was recorded immediately at 730nm taking PBS as blank.
Calculation: The percent antioxidant activity was calculated according to the formula: % Antioxidant activity = [O.D of test sample/O.D of control*100]-100.

T1 sequence (P02769 25-607): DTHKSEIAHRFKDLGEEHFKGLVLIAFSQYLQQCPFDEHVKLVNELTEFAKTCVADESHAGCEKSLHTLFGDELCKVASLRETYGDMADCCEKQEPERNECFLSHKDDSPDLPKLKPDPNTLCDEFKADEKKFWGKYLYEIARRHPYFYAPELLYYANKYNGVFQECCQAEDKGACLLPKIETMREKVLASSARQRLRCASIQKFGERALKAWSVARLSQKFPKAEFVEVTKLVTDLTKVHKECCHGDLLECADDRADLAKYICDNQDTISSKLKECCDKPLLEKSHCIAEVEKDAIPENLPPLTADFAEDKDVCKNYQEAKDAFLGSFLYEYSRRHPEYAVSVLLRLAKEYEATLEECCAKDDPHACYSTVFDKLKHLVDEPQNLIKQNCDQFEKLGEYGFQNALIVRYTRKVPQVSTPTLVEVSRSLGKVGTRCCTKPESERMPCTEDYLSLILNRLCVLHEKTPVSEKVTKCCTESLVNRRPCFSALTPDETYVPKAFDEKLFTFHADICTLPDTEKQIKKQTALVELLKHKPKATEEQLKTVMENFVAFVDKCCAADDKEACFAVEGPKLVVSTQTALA

| SMILES | % Breakage (AGE-BSA; 5 mM test compound) | AGE breaking activity compared to PTB (AGE-BSA) | % Breakage (AGE-BSA; 10 mM test compound) | Relative Free Radical Scavenging Activity(%) on ABTS ([1]; 11.5µM) | Relative Free Radical Scavenging Activity(%) on ABTS ([1]; 23.0µM) | Relative Free Radical Scavenging Activity(%) on ABTS ([1]; 46.0µM) | Relative Free Radical Scavenging Activity(%) on ABTS ([1]; 92.5µM) | other results |
| --- | --- | --- | --- | --- | --- | --- | --- | --- |
| O=C(NNC(=O)c1ccc[n+](CC(=O)c2cccs2)c1)c1ccc[n+](CC(=O)c2cccs2)c1.[Br-].[Br-] [Compound 6, N, N'-bis [3-carbonyl-1-(2-thien-2'-yl-2-oxoethyl)pyridinium] hydrazine dibromide] | 53% | superior | – | – | – | – | – | % Improvement in collagen solubility with respect to untreated control subject. (Rat Tail Tendon Collagen; 7.5mg/kg): 56.70% |
| CCOC(=O)NNC(=O)c1ccc[n+](CC(=O)c2cccs2)c1 [Compound 54, 1-(2-thien-2'-yl-2-oxoethyl)-3-(ethoxycarbonyl hydrazinocarbonyl) pyridinium bromide] | – | – | 33.43% | 5.22% | 15.45% | 46.82% | 77.07% | %Inhibition (Day 7) (Maillard reaction; 2.5mM): 46.3% |
| Cc1ccc(C(=O)C[n+]2cccc(C(=O)NNS(C)(=O)=O)c2)s1.[Cl-] [Compound 63, 1-(2-(5-methylthien-2-yl)-2-oxoethyl)-3-(methanesulfonyl hydrazinocarbonyl) pyridinium chloride] | – | – | 25.17% | 10.75% | 47.20% | 88.64% | 99.18% | %Inhibition (Day 7) (Maillard reaction; 6.25mM): 58.15% |
| O=C(C[n+]1cccc(C(=O)NNC(=O)c2ccc[n+](CC(=O)NC3CC3)c2)c1)NC1CC1 [Compound 39, N, N'-bis-[3-carbonyl-1-(2-cyclopropylamino-2-oxoethyl)pyridinium] hydrazine dichloride] | 22.8% | superior | – | 43.0% | 62.8% | 95.6% | 98% | % Improvement in collagen solubility with respect to untreated control subject. (Rat Tail Tendon Collagen; 6.0mg/kg): 28.00% |
| COCCNC(=O)c1ccc[n+](CC(=O)c2ccc(Cl)cc2Cl)c1.[Br-] [Compound 38, 1-(2', 4'-dichlorophenyl-2-oxoethyl)-3-(2-methoxyethylaminocarbonyl)-pyridinium bromide] | 17.66% | – | – | 47.2% | 54.8% | 71.0% | 89.5% | Relative Free Radical Scavenging Activity(%) on ABTS ([1]; 925µM): 100% |
| O=C(NNS(=O)(=O)C(F)(F)F)c1ccc[n+](CC(=O)c2cccs2)c1 [Compound 68, 1-(2-thien-2'-yl-2-oxoethyl)-3-(trifluoromethanesulfonyl hydrazinocarbonyl) - pyridinium bromide] | – | superior | 92.64% | 38.47% | 43.54% | 89.32% | 95.07% | potency (AGE breaking activity compared to PTB) (AGE-BSA): significantly much higher |
| CCCCOC(=O)c1ccc[n+](CC(=O)Nc2ccccc2)c1.[Cl-] [Compound 93, 1-(2- Phenylamino-2-oxoethyl) -3-(n-butyloxycarbonyl) pyridinium chloride] | – | – | 57% | 8.5% | 8.6% | 9.6% | 11.4% | Relative Free Radical Scavenging Activity(%) on ABTS ([1]; 925µM): 25.0% |
| CS(=O)(=O)NNC(=O)c1ccc[n+](CC(=O)c2cccs2)c1.[Br-] [Compound 5, 1-(2-thien-2'-yl-2-oxoethyl) -3-(methanesulfonylhydrazinocarbonyl) pyridinium bromide] | – | – | 16% | 47.2% | 65.6% | 83.7% | 100% | % Improvement in collagen solubility with respect to untreated control subject. (Rat Tail Tendon Collagen; 10.0mg/kg): 88.80%; % Breakage (AGE-BSA; 50 mM test compound): 68%; %Inhibition (Day 7) (Maillard reaction; 10mM): 70% |
| CC(C)S(=O)(=O)NNC(=O)c1ccc[n+](CC(=O)c2cccs2)c1 [Compound 50, 1-(2-thien-2'-yl-2-oxoethyl)-3-(isopropylsulfonyl hydrazinocarbonyl) pyridinium bromide] | – | superior | 31.45% | 3.30% | 23.06% | 54.95% | 89.31% | – |
| O=C(NNC(=O)c1ccc[n+](CC(=O)c2cccs2)c1)c1ccc[n+](CC(=O)c2cccs2)c1.[Cl-].[Cl-] [Compound 33, N, N'-bis [3-carbonyl-1-(2-thien-2'-yl-2-oxoethyl)pyridinium] hydrazine dichloride] | 20% | superior | – | 58.4% | – | – | 100% | % Improvement in collagen solubility with respect to untreated control subject. (Rat Tail Tendon Collagen; 15.0 mg/kg): 80.45%; %Inhibition (Day 7) (Maillard reaction; 2.5mM): 68.4%; Relative Free Radical Scavenging Activity(%) on ABTS ([1]; 23 µM): 72.8%; Relative Free Radical Scavenging Activity(%) on ABTS ([1]; 46 µM): 98.5% |
| COCCOC(=O)c1ccc[n+](CC(=O)c2ccc(Cl)cc2Cl)c1 [Compound 22, 1-(2-(2', 4'-dichlorophenyl)-2-oxoethyl)-3-(2(methoxy)ethyloxycarbonyl) pyridinium bromide] | – | – | 13% | 27.9% | 50.9% | 69.3% | 79.7% | % Breakage (AGE-BSA; 25 mM test compound): 41%; Relative Free Radical Scavenging Activity(%) on ABTS ([1]; 925µM): 100% |
| CCOC(=O)C[n+]1cccc(C(=O)NCCOC(=O)c2ccccc2)c1.[Br-] [Compound 7, 1-(2-ethoxy-2-oxoethyl) -3-(2-(benzoyloxy)ethylaminocarbonyl) pyridinium bromide] | – | – | – | – | – | – | – | % Breakage (AGE-BSA; 20 mM test compound): 36%; %Inhibition (Day 7) (Maillard reaction; 10mM): 51% |
| O=C(C[n+]1cccc(C(=O)NNc2ccccc2)c1)Nc1ccccc1.[Cl-] [Compound 65, 1-(2-phenylamino-2-oxoethyl)-3-(phenyl hydrazinocarbonyl) pyridinium chloride] | – | superior | – | 27.67% | 59.20% | 94.14% | 100.00% | % Breakage (AGE-BSA; 2.5 mM test compound): 68.35%; potency (AGE breaking activity compared to PTB) (AGE-BSA): significantly much higher |
